Data set [1] can be described thus: Stable polymorph form screen (slurry experiments, final form by XRPD). Format: physicochemical. Particulars: for Final form (XRPD Result): start Form A + minor Form B. How it is done: Slurry experiments were conducted to identify the stable form at various conditions. In these experiments, saturated solutions in various solvents containing excess undissolved solids (starting with Form A+minor Form B) were stirred for extended durations. Slurries at room temperature (RT) and 2-8° C. were typically conducted for approximately 2 weeks, while slurries at 72-73° C. were stirred for a shorter duration (1 day) to minimize the potential for decomposition. […] The results are shown in the table 12 where the time and temperatures are approximate.

Data set [2] is described as follows: Form A and Form B interconversion (competitive) slurries, final form by XRPD. In kind it is physicochemical. On the procedure: Relative thermodynamic stabilities of anhydrous/non-solvated Forms A and B were studied at 2-8° C., room temperature (RT) and at 71-72° C. via interconversion (competitive) slurries. In these slurries, a given solvent system was pre-saturated with compound 092 (Form A+minor Form B) at the stated temperature, and a portion of the liquid phase was filtered into a mixture of solids containing relatively equal amounts of Form A and Form B. Interconversion slurries at 2-8° C. and RT were allowed to stir for 22 days, while slurries at 71-72° C. stirred for shorter duration (2-4 days). […] The results are reported in table 13 below where: liquid phase for each slurry was pre-saturated using as-received Form A+minor Form B; solvent ratios are v/v; water activity values were calculated using UNIFAC calculator at RT; and times and temperatures are approximate.

On to `CC1(NC(=O)c2cccc3nn(-c4cccnc4)cc23)CC1` [Compound 092, N-(1-methylcyclopropyl)-2-(3-pyridinyl)-2H-indazole 4-carboxamide], for which the “Final form (XRPD Result)” value is recorded as “Form A” in data set [1] (slurry in DCM, RT, 13 d); “Form A” in data set [1] (slurry in DMF, RT, 13 d); “Form A” in data set [1] (slurry in EtOH, 72-73° C., 1 d); “Form A” in data set [1] (slurry in EtOH, RT, 13 d); “Form A” in data set [1] (slurry in IPA, RT, 13 d); “Form A” in data set [1] (slurry in MEK, 72-73° C., 1 d). The “Final form (XRPD Result)” value in data set [1] (slurry in MEK, RT, 13 d) was “Form A”; in data set [1] (slurry in MeOH, 2-8° C., 14 d), “Form A”; in data set [1] (slurry in MeOH, RT, 13 d) it was “Form A”; in data set [1] (slurry in acetone, RT, 13 d), “Form A”.
`CC1(NC(=O)c2cccc3nn(-c4cccnc4)cc23)CC1` [Form A, N-(1-methylcyclopropyl)-2-(3-pyridinyl)-2H-indazole 4-carboxamide]: in data set [2] (between 2° C. and 72° C., from competitive slurries), the “Relative thermodynamic stability of Forms A and B” value was “thermodynamically stable form”. The “Relative stability of polymorph forms” value in data set [1] (between 2° C. and 73° C., from slurries) was “more stable than Form B”.
For the compound `CC1(NC(=O)c2cccc3nn(-c4cccnc4)cc23)CC1` [Form A + Form B, N-(1-methylcyclopropyl)-2-(3-pyridinyl)-2H-indazole 4-carboxamide], the “Final form (XRPD Result)” value is reported as “Form A” in data set [2] (competitive slurry in EtOH, 71-72° C., 2 d); “Form A” in data set [2] (competitive slurry in EtOH, RT, 22 d); “Form A” in data set [2] (competitive slurry in NMP/water 80:20 (aw 0.39), 2-8° C., 22 d); “Form A” in data set [2] (competitive slurry in NMP/water 80:20 (aw 0.39), 71-72° C., 2 d); “Form A” in data set [2] (competitive slurry in NMP/water 80:20 (aw 0.39), RT, 22 d).

For the origin of these results see patent US20250179043A1, “PROCESSES FOR THE PREPARATION OF N-(1-METHYLCYCLOPROPYL)-2-(3-PYRIDINYL)-2H-INDAZOLE-4-CARBOXAMIDE AND INTERMEDIATES THEREOF” (FMC CORPORATION, priority 2022, published 2025).
